Laboratory results as given in PubChem BioAssay AID2060885 (Molecular Pharmacology Branch, DTP, NCI, 2025).

Test system: NCI-H23 complex spheroids with HUVEC/MSC, viability
Experiment: Anticancer human tumor NCI-H23 cell line growth inhibition [RAS];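 further: spheroids exposed to compound for 7 days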;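 on viability, T/C: 100% = DMSO vehicle control viability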
Settings: for IC50: curve of first compound; for viability, T/C: stronger effect = lower value; active means viability on the fitted dose curve at most 10% of control; inactive means the rest
Summary of the method: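 Multi-cell-type spheroids: tumor cells plus HUVEC endothelial cells and mesenchymal stem cells. RAS-pathway inhibitors were combined with targeted agents, each dosed in half-log steps down from clinical Cmax, or from 10 microM when Cmax was unknown.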

[1] = second compound 0.000949 µM, first compound 0.00316 µM
[2] = second compound 0.000949 µM, first compound 0.01 µM
[3] = second compound 0.000949 µM, first compound 0.0316 µM
[4] = second compound 0.000949 µM, first compound 0.1 µM
[5] = second compound 0.000949 µM, first compound 0.316 µM
[6] = second compound 0.000949 µM, first compound 1 µM
[7] = second compound 0.003 µM, first compound 0.00316 µM
[8] = second compound 0.003 µM, first compound 0.01 µM
[9] = second compound 0.003 µM, first compound 0.0316 µM
[10] = second compound 0.003 µM, first compound 0.1 µM
[11] = second compound 0.003 µM, first compound 0.316 µM
[12] = second compound 0.003 µM, first compound 1 µM
[13] = second compound 0.00949 µM, first compound 0.00316 µM
[14] = second compound 0.00949 µM, first compound 0.01 µM
[15] = second compound 0.00949 µM, first compound 0.0316 µM
[16] = second compound 0.00949 µM, first compound 0.1 µM
[17] = second compound 0.00949 µM, first compound 0.316 µM
[18] = second compound 0.00949 µM, first compound 1 µM
[19] = second compound 0.03 µM, first compound 0.00316 µM
[20] = second compound 0.03 µM, first compound 0.01 µM
[21] = second compound 0.03 µM, first compound 0.0316 µM
[22] = second compound 0.03 µM, first compound 0.1 µM
[23] = second compound 0.03 µM, first compound 0.316 µM
[24] = second compound 0.03 µM, first compound 1 µM
[25] = second compound 0.0949 µM, first compound 0.00316 µM
[26] = second compound 0.0949 µM, first compound 0.01 µM
[27] = second compound 0.0949 µM, first compound 0.0316 µM
[28] = second compound 0.0949 µM, first compound 0.1 µM
[29] = second compound 0.0949 µM, first compound 0.316 µM
[30] = second compound 0.0949 µM, first compound 1 µM
[31] = second compound 0.3 µM, first compound 0.00316 µM
[32] = second compound 0.3 µM, first compound 0.01 µM
[33] = second compound 0.3 µM, first compound 0.0316 µM
[34] = second compound 0.3 µM, first compound 0.1 µM
[35] = second compound 0.3 µM, first compound 0.316 µM
[36] = second compound 0.3 µM, first compound 1 µM

C=CC(=O)N1CCN(c2nc(OCC3CCCN3C)nc3c(F)c(-c4nc(N)cc(C)c4C(F)(F)F)c(Cl)cc23)C(C)C1 (stereo unspecified) + CCn1c(-c2cc(N3CCN(C)CC3)cnc2C(C)OC)c2c3cc(ccc31)-c1csc(n1)CC(NC(=O)C1CC1C)C(=O)N1CCCC(N1)C(=O)OCC(C)(C)C2
inactive: viability, T/C [1] 32.5% | viability, T/C [2] 33% | viability, T/C [3] 22.8% | viability, T/C [4] 30.2% | viability, T/C [5] 28.8% | viability, T/C [6] 23.3% | viability, T/C [7] 32.6% | viability, T/C [8] 26.3% | viability, T/C [9] 23.6% | viability, T/C [10] 29.8% | viability, T/C [11] 29.5% | viability, T/C [12] 27.4% | viability, T/C [13] 31% | viability, T/C [14] 25% | viability, T/C [15] 28.1% | viability, T/C [16] 28.5% | viability, T/C [17] 25.9% | viability, T/C [18] 26.9% | viability, T/C [19] 26.4% | viability, T/C [20] 23% | viability, T/C [21] 25% | viability, T/C [22] 21% | viability, T/C [23] 16.9% | viability, T/C [24] 21.8% | viability, T/C [25] 18.4% | viability, T/C [26] 16.8% | viability, T/C [27] 16% | viability, T/C [28] 14.4% | viability, T/C [29] 12.2% | viability, T/C [30] 13.8% | viability, T/C [31] 17.2% | viability, T/C [32] 13.7% | viability, T/C [33] 14% | viability, T/C [34] 11.8% | viability, T/C [35] 12.9% | viability, T/C [36] 11.1%
< 3.16 nM: IC50 (second compound 0.000949 µM) | IC50 (second compound 0.003 µM) | IC50 (second compound 0.00949 µM) | IC50 (second compound 0.03 µM) | IC50 (second compound 0.0949 µM) | IC50 (second compound 0.3 µM)

CC1(C)CCC(Nc2ncc(C(F)(F)F)c(-c3c[nH]c4c(P(C)(C)=O)c(C#N)ccc34)n2)CN1 (stereo unspecified) + CCn1c(-c2cc(N3CCN(C)CC3)cnc2C(C)OC)c2c3cc(ccc31)-c1csc(n1)CC(NC(=O)C1CC1C)C(=O)N1CCCC(N1)C(=O)OCC(C)(C)C2
inactive: viability, T/C (second compound 0.000949 µM, first compound 0.000949 µM) 33.9% | viability, T/C (second compound 0.000949 µM, first compound 0.003 µM) 29.4% | viability, T/C (second compound 0.000949 µM, first compound 0.00949 µM) 21.1% | viability, T/C (second compound 0.000949 µM, first compound 0.03 µM) 26.6% | viability, T/C (second compound 0.000949 µM, first compound 0.0949 µM) 21% | viability, T/C (second compound 0.000949 µM, first compound 0.3 µM) 14.5% | viability, T/C (second compound 0.003 µM, first compound 0.000949 µM) 26.6% | viability, T/C (second compound 0.003 µM, first compound 0.003 µM) 21.2% | viability, T/C (second compound 0.003 µM, first compound 0.00949 µM) 16.8% | viability, T/C (second compound 0.003 µM, first compound 0.03 µM) 18.4% | viability, T/C (second compound 0.003 µM, first compound 0.0949 µM) 16.7% | viability, T/C (second compound 0.003 µM, first compound 0.3 µM) 12.2% | viability, T/C (second compound 0.00949 µM, first compound 0.000949 µM) 21.4% | viability, T/C (second compound 0.00949 µM, first compound 0.003 µM) 16.8% | viability, T/C (second compound 0.00949 µM, first compound 0.00949 µM) 16.1% | viability, T/C (second compound 0.00949 µM, first compound 0.03 µM) 15.9% | viability, T/C (second compound 0.00949 µM, first compound 0.0949 µM) 12.8% | viability, T/C (second compound 0.00949 µM, first compound 0.3 µM) 11.8% | viability, T/C (second compound 0.03 µM, first compound 0.000949 µM) 17.6% | viability, T/C (second compound 0.03 µM, first compound 0.003 µM) 14.4% | viability, T/C (second compound 0.03 µM, first compound 0.00949 µM) 13.4% | viability, T/C (second compound 0.03 µM, first compound 0.03 µM) 12.8% | viability, T/C (second compound 0.03 µM, first compound 0.0949 µM) 10.5% | viability, T/C (second compound 0.03 µM, first compound 0.3 µM) 12.6% | viability, T/C (second compound 0.0949 µM, first compound 0.000949 µM) 15% | viability, T/C (second compound 0.0949 µM, first compound 0.003 µM) 13.5% | viability, T/C (second compound 0.0949 µM, first compound 0.00949 µM) 10.5% | viability, T/C (second compound 0.0949 µM, first compound 0.03 µM) 10.9% | viability, T/C (second compound 0.3 µM, first compound 0.000949 µM) 13.1% | viability, T/C (second compound 0.3 µM, first compound 0.003 µM) 10.8% | viability, T/C (second compound 0.3 µM, first compound 0.00949 µM) 10.7%
active: viability, T/C (second compound 0.0949 µM, first compound 0.0949 µM) 9.11% | viability, T/C (second compound 0.0949 µM, first compound 0.3 µM) 10.1% | viability, T/C (second compound 0.3 µM, first compound 0.03 µM) 9.9% | viability, T/C (second compound 0.3 µM, first compound 0.0949 µM) 9.8% | viability, T/C (second compound 0.3 µM, first compound 0.3 µM) 9.04%
< 0.949 nM: IC50 (second compound 0.000949 µM) | IC50 (second compound 0.003 µM) | IC50 (second compound 0.00949 µM) | IC50 (second compound 0.03 µM) | IC50 (second compound 0.0949 µM) | IC50 (second compound 0.3 µM)

C=CC(=O)Nc1cc(Nc2nccc(-c3cn(C)c4ccccc34)n2)c(OC)cc1N(C)CCN(C)C + CCn1c(-c2cccnc2C(C)OC)c2c3cc(ccc31)N1CCOC(CC(NC(=O)C(C(C)C)N(C)C(=O)C3(F)CCN(C(=O)C#CC(C)(C)N(C)C)CC3)C(=O)N3CCCC(N3)C(=O)OCC(C)(C)C2)C1
< 3.16 nM: IC50 (second compound 0.000949 µM) | IC50 (second compound 0.00949 µM) | IC50 (second compound 0.03 µM) | IC50 (second compound 0.0949 µM) | IC50 (second compound 0.3 µM)
719 nM: IC50 (second compound 0.003 µM)
inactive: viability, T/C [1] 38.8% | viability, T/C [2] 38.4% | viability, T/C [3] 29% | viability, T/C [4] 28.6% | viability, T/C [5] 25.8% | viability, T/C [6] 20.1% | viability, T/C [7] 99.9% | viability, T/C [8] 44.7% | viability, T/C [9] 101% | viability, T/C [10] 120% | viability, T/C [11] 102% | viability, T/C [12] 32.5% | viability, T/C [13] 35.5% | viability, T/C [14] 28.9% | viability, T/C [15] 31.1% | viability, T/C [16] 30.5% | viability, T/C [17] 23.9% | viability, T/C [18] 22.2% | viability, T/C [19] 31.2% | viability, T/C [20] 26.7% | viability, T/C [21] 30.9% | viability, T/C [22] 30.9% | viability, T/C [23] 18.3% | viability, T/C [24] 23.1% | viability, T/C [25] 27.1% | viability, T/C [26] 28.6% | viability, T/C [27] 31% | viability, T/C [28] 26.7% | viability, T/C [29] 19.2% | viability, T/C [30] 21.6% | viability, T/C [31] 25.5% | viability, T/C [32] 26.7% | viability, T/C [33] 24.6% | viability, T/C [34] 23% | viability, T/C [35] 22.9% | viability, T/C [36] 21.6%
